Entries after “also recorded” stand apart in the source; their conditions may differ.
Tests used:
[1] = system: blood brain barrier (BBB) on-chip, iPS-derived brain endothelial cells; assay: Barrier function test with human serum proteins (ELISA); format: in vitro ADME; conditions: FIG. 47, ELISA
Procedure: (§1) In some embodiments, methods for seeding cells on-chip are provided, as follows for one example: Day—1: Activate and Coat Chips, Day 0: Seed HBMECs, Astrocytes and Pericytes.; Day 1: Initiate flow of media @60 μl/hr. Bottom channel only or Top and bottom channels.; Day 2: Initiate permeability assay: Dextran+ Serum proteins+ Compounds of interest.; Day 3: End permeability assay. Collect media and freeze.; Day 4: Test permeability modulators/experimental stimuli Day 5: Repeat permeability assay.; Day 6: End permeability assay—Collect media and freeze. Fix or lyse chips.

[2] = system: BMECs seeded on a microfluidic device; assay: Paracellular permeability assay with Dextran-FITC on chip; format: cell-based, human; conditions: FIG. 14B, TNFa exposure
Procedure: Albumin or Dextran conjugated to a fluorescent probe (e.g., FITC or TRITC) are frequently used to monitor changes in leakage, and thus barrier function. In this case, Dextran-FITC, a green fluorescent molecule of 4 KDa, or sodium fluorescein (a 0.3 KDa molecule), was added to the bottom (“blood side”) channel. Paracellular permeability was calculated by measuring the permeability of the fluorescent molecule on the Top (“brain side”) channel. […] FIG. 14B involves TNF-alpha exposure, but the readout is membrane permeability as measured by Dextran-FITC.

[3] = system: iBMEC barrier function; assay: TEER measurement on prototype TEER chips under flow; format: cell-based, human; conditions: FIG. 14A, chips under flow then exposed to TNFa
Procedure: Cells were plated on tall channel PDMS chips equipped with incorporated gold electrodes on each channel (see FIG. 13A). Post seeding of BMECs, transendothelial electrical resistance was measured by connecting the electrodes to an EVOM2 voltohmmeter (see FIG. 13B). […] The “damaged” chip was a failure due to the TEER-Chips being a prototype.
Higher TEER values generally indicate a tighter barrier, which is typically desirable for a blood-brain barrier.

[4] = system: SC-Chip neurons (lines 83GFP and 00iCTR); format: cell-based, human
[5] = system: neurons seeded in chip; format: cell-based, human
[6] = system: blood brain barrier (BBB) on-chip; format: in vitro ADME, human; conditions: FIG. 46A, % Dextran (fluorescence)
Procedure: as §1

Molecule: transferrin: human transferrin measured by ELISA
- diffusion / level in neuronal channel, from Vascular Channel to Neuronal Channel [1]: High levels

Molecule: TNFa
- permeability through the semi-porous membrane by dextran-FITC after exposure [2]: increase in permeability
- iBMEC barrier function (TEER) after exposure [3]: weakening of barrier function; also recorded: decrease in barrier function and TEER

Molecule: NC1=N[C@H](O)[C@H]2[C@H]3O[C@]4(O)O[C@@H]([C@@H](O)[C@@]2(N1)[C@@H]4O)[C@]3(O)CO [tetrodotoxin]
- neuron activity (calcium transients) [4]: completely ablated
- effect on calcium flux (neuronal) activity [5]: ablates this activity

Molecule: Dextran
- diffusion from Vascular Channel to Neuronal Channel [6]: low diffusion
